Test results from patent publication US11413267B2, “Methods and compositions for inhibition of ATR and FANCD2 activation” (priority 2012, dated 2022).

Columns and labels:
[1] = test system: Ad-GFP virus replication; assay: Ad-GFP virus replication (supernatant re-infection of HEK293A cells); type: cell-based, adenovirus
Description: Ideally, the Ad-GFP virus is replicated within HEK293A cells. To test the effect of benzopyran-4-one derivative compounds on Ad-GFP virus replication, the same virus infection and compound treatment are performed as shown in FIG. 26. At the end of a 24-hour experiment, we collected the Ad-GFP virus from each well of Ad-GFP infected HEK293A using two freeze-thaw cycles and then collected the supernatants. An equal amount of supernatants from each well were then infected with the HEK293A cells, which were newly-prepared 1 day before infection in a 96-well plate at a density of 5×10^4 per well. Finally, the GFP cell images were obtained using the inverted fluorescence microscope and quantified by analyzing the MFI using flow cytometry for each well of cells.

[2] = test system: DNA replication; assay: EdU incorporation assay of DNA replication; type: cell-based
Description: DNA replication was measured using a Click-it EdU assay kit, which is based on incorporation of the thymidine analogue 5-ethynyl-2'-deoxyuridine (EdU) into DNA during replication (Invitrogen). Then, 10 μM EdU was added to the cell culture medium 30 min before the cells were harvested and fixed in 4% paraformaldehyde. After cycloaddition, EdU was detected with Alexa Fluor 647 using click reaction catalyzed by Cu (II), and the DNA content was stained by CellCycle 405-blue. […] An FITC Annexin V apoptosis detection kit was used to characterize the phenotype of cell death based on PI and Annexin V double staining (BD Pharmingen, San Diego, Calif.). Fluorescence-labeled cells were subsequently analyzed by the BD LSR II flow cytometer with a suitable selection of excitation and emission wavelengths. The percentages of different fluorescent cells were analyzed using WinMDI Ver. 2.9.

[3] = test system: DDR signaling (Chk2 Thr68, Chk1 Ser345 phosphorylation); assay: Immunoblot of DDR signaling after compound alone (no DNA damage); type: cell-based, human
Description: Since mitomycin C can induce DDR in many cancers, we investigated what kind of DDR signaling was activated by Protoapigenone (I-1). […] We repeated the benzopyran-4-one derivatives experiment on lung and breast carcinoma cell lines A549 and MDA-MB-231 cells, respectively, and obtained similar results. Consistently, no marked changes in Chk1 and Chk2 phosphorylation signaling were detected even at high doses of either drug for as long as 8 h after drug treatment (FIGS. 3(a) and 3(b)).
Cell lysate preparations, gel electrophoresis, and immunoblotting were performed as previously described (23). The binding of primary antibodies were detected by horseradish peroxidase-coupled secondary antibodies (Jackson ImmunoResearch) followed by enhanced chemiluminescence (ECL) (Millipore). The images of non-saturated bands were captured using a luminescent image analyzer (LAS-4000 mini; Fujifilm). The antibodies used in this study are listed in supplementary materials.

[4] = test system: GFP-expressing retrovirus (Lenti-GFP); assay: Lenti-GFP infection of HEK293T cells; type: cell-based, lentivirus
Description: In addition to the test of the benzopyran-4-one derivative compounds on the DNA virus infection, they were tested on the retrovirus using a GFP-expressing retrovirus to visualize the […] infection. […]. Afterward, the lentiviral stock (Lenti-GFP) was titered and used to infect the cells for analysis.
(§1) To observe the anti-virus effect of the benzopyran-4-one derivative compounds, Ad-GFP and Lenti-GFP at a low MOI of 0.5 were then applied to infect the HEK293A cells and HEK293T cells, respectively. In the prevention group, cells were treated by compounds of Compound I-1 at 0.2, 1, and 2 μM or Compound II-1 at 0.1, 0.5, 1 μM for 30 minutes before Ad-GFP and Lenti-GFP infection. In the treatment group, cells were treated by compounds of Compound I-1 at 0.2, 1, and 2 μM or Compound II-1 at 0.1, 0.5, and 1 μM for 2 hours after Ad-GFP and Lenti-GFP infection. After a total of 6 hours of compounds and virus treatments, cells were washed with Hank's buffered salt solution and a flash culture media was replaced.
(§2) 24 hours after virus infection, the effect of the benzopyran-4-one derivative compounds on the antivirus infection was recorded by observing the GFP positive cells under an inverted fluorescence microscope. The mean fluorescence intensity by flow cytometry in each plate of cells was analyzed for quantification.

[5] = test system: MDA-MB-231 tumor xenograft; assay: Human xenograft tumors in nude mice; type: in vivo
Text: Inhibition of the checkpoint and repair mechanisms leads to chemosensitization in cancers. […] We further treated individual cells with cisplatin in combination with several varying doses of benzopyran-4-one derivatives, and counted survival colonies to determine their ability to survive after cisplatin-induced damage. […] To investigate the chemosensitization effect of low-dose benzopyran-4-one derivatives in vivo, we established a tumor xenograft in nude mice using human MDA-MB-231 tumor cells, which are considered to be more resistant to cisplatin and are also sensitive to treatment with benzopyran-4-one derivatives, at least as compared to A549 cells (FIGS. 4, 17(a) and 17(b)). […] The pharmacokinetic data of Protoapigenone (I-1) and compound II-1 needs to be compared in future studies to determine the differences in the chemical effects of these 2 compounds in vitro and in vivo.
Human breast cancer MAD-MB-231 cells were harvested from the culture, resuspended in medium without serum at 1×10^8 cells/mL, and 0.1 mL of this suspension was subcutaneously injected into the right flank of female nude mice (BALB/cAnN-Foxn1nu/Crl Narl; purchased from the National Science Council Animal Center, Taiwan). Tumor-injected mice that successfully developed tumors that grew to approximately 50-100 mm^3 in volume were randomly sorted into groups and used for the experiments. […]

[6] = test system: GFP expressing adenovirus (Ad-GFP); assay: Ad-GFP infection of HEK293A cells; type: cell-based; settings: for Ad-GFP infection: 0.2-2 μM
Text: To test the effects of anti-virus infection of benzopyran-4-one derivative compounds, a green fluorescent protein (GFP) expressing adenovirus to visualize adenovirus infection was used. To obtain the reporter virus, the GFP cDNA is amplified from pEGFP-N1 (Clontech, Accession: U55762.1) through a polymerase chain reaction with primers 5′-CACCATGGTGAGCAAGGGC-3′ [SEQ ID NO: 5] and 5′-[…]-3′ [SEQ ID NO: 6], and then cloned into pENTR™/D-TOP vector (Invitrogen). The GFP cDNA was transferred to adenovirus vector pAd/CMV/V5-DEST™ through an in vitro recombination method using LR Clonase® II after the sequence was confirmed. We selected the ampicillin- and […] clones to obtain the pAd-GFP. The pAd-GFP plasmid is then transfected into E1a and E1b expressing HEK293A cells to produce a crude GFP expression adenoviral stock (Ad-GFP). The adenovirus was amplified by infecting HEK293A cells. The adenoviral stock was titered and later used to infect the cells for the analysis.
as §1, §2

[7] = post-treatment 2 hours after infection, re-infection
[8] = pre-treatment, 24 hours after re-infection
[9] = post-treatment 2 hours after infection, 0.1-1 μM
[10] = pre-treatment, 0.2-2 μM Compound I-1 or 0.1-1 μM Compound II-1
[11] = pre-treatment 30 minutes before infection, 0.1-1 μM, MOI 0.5, 24 hours

## O=C1C=CC(O)(c2cc(=O)c3c(ccc4ccccc43)o2)C=C1 [Compound II-1, 3-(1-hydroxy-4-oxo-cyclohexa-2,5-dienyl)-1H-benzo[f]chromen-1-one]
[1]; [7]
  MFI of GFP protein: significant decreased
  Number of GFP cells: significant decreased
[1]; [8]
  MFI of GFP protein: significantly decreased
  Number of GFP cells: significantly decreased
[2]; 0.4 μM
  Percentage of EdU incorporation compared with control group: efficiently reduce
[3]; high dose, no DNA damage (FIGS. 3(a), 3(b))
  Chk2 activation by compound itself: slightly induces
[4]; [9]
  MFI of GFP protein: significantly decreased
[4]; [10]
  MFI of GFP protein: significantly decreased
[5]; 0.2 mg/kg with 2 mg/kg cisplatin, intraperitoneally every 4 d
  Tumor inhibitory effect: greater than that of cisplatin treatment alone
[6]; [9]
  MFI of GFP protein: decreased
  Number of GFP cells: decreased
[6]; [11]
  Mean fluorescence intensity (MFI) of GFP protein: decreased
  Number of GFP cells: decreased
[6]; unidentified adenovirus, HEK293-A, read-out: Virus inhibition effect
  inhibition at 1 µM: 50 to 99%

## O=C1C=CC(O)(c2cc(=O)c3c(O)cc(O)cc3o2)C=C1 [Compound I-1, Protoapigenone]
[1]; [7]
  MFI of GFP protein: significant decreased
  Number of GFP cells: significant decreased
[1]; [8]
  MFI of GFP protein: significantly decreased
  Number of GFP cells: significantly decreased
[2]; 4 μM
  Percentage of EdU incorporation compared with control group: efficiently reduce
[3]; HEK293T cells
  p53 protein accumulation: slight accumulation of the p53 protein
[3]; HEK293T cells, high doses (10 μM, FIG. 2)
  Change of putative DDR signaling (phosphorylation of Chk2 Thr68 and Chk1 Ser345): did not induce noticeable changes
[3]; HEK293T cells, time after exposure
  MAPKAPK2 phosphorylation (p38 MAPK target): phosphorylated starting as early as 2 h
[4]; post-treatment, 2 μM
  MFI of GFP protein: showed an inhibition effect
[4]; [10]
  MFI of GFP protein: significantly decreased
[5]; 2 mg/kg (data not shown)
  Cisplatin sensitivity of MDA-MB-231 tumors: did not affect the cisplatin sensitivity
[6]; post-treatment
  Ad-GFP infection: did not inhibit the Ad-GFP infection
[6]; pre-treatment
  Ad-GFP infection: did not prevent the Ad-GFP infection
